Results as given in paper PMC7403980, “Anti-Inflammatory Effects of the Novel PIM Kinase Inhibitor KMU-470 in RAW 264.7 Cells through the TLR4-NF-κB-NLRP3 Pathway” (International Journal of Molecular Sciences, 2020).

Experiments:
[1] = target: T1, PIM-3 (Homo sapiens, UniProt Q86V86); assay: PIM kinase IMAP fluorescence polarization IC50 determination; format: biochemical; conditions: ATP 20 μM; average of two independent experiments; read-out: Inhibitory Activity IC50 PIM-3
T1 construct: purchased Millipore (Burlington, MA, USA)
Description: (§1) The recombinant PIM kinase, human 5-FAM-labelled Bad peptide substrate, and ATP were prepared in a reaction buffer containing 10 mM HEPES (pH 7.2), 10 mM MgCl2, 0.05% NaN3, 0.01% Triton X-100, and 2 mM DTT. […] Reagents were added to the plate as follows: 2.5 μL compound, 2.5 μL PIM kinase, 2.5 μL ATP, and 2.5 μL 5-FAM-labelled Bad peptide substrate (a final concentration of 100 nM). The final concentrations of ATP in the kinase reactions were 30 μM, 5 μM, and 20 μM for PIM1, PIM2, and PIM3, respectively. […] Kinase reactions were incubated at room temperature for 90 min, and then the reactions were stopped by the addition of 20 μL of IMAP binding reagent (solution containing 75% Buffer A: 25% Buffer B, and a 1 in 600 dilution of beads). After quenching, the plates were incubated at room temperature for 2 h, and then the fluorescence polarization measurements were carried out on an Infinity F200 (Tecan, Männedorf, Zürich, Switzerland). The percentage of inhibition was calculated for each compound concentration and the data were fitted to the equation of a 4-parameter logistic curve. IC50 values were obtained using GraphPad Prism (GraphPad Software, Inc., La Jolla, CA, USA).

[2] = target: T2, PIM-2 (Homo sapiens, UniProt Q9P1W9); assay: as above; format: biochemical; conditions: ATP 5 μM; average of two independent experiments; read-out: Inhibitory Activity IC50 PIM-2
T2 construct: purchased Abcam (Cambridge, UK)
Description: as §1

[3] = target: T3, PIM-1 (Homo sapiens, UniProt P11309); assay: as above; format: biochemical; conditions: ATP 30 μM; average of two independent experiments; read-out: Inhibitory Activity IC50 PIM-1
T3 construct: purchased Life Technologies (Carlsbad, CA, USA)
Description: as §1

[4] = system: TLR4; assay: LPS-induced TLR4 protein expression in RAW 264.7 cells (Western blot); format: cell-based, murine; conditions: KMU-470 0.5 and 1 μM 30 min, LPS 6 h
Description: Figure 4 Inhibitory effect of KMU-470 on LPS-induced TLR4 and MyD88 protein expression in RAW 264.7 cells. (A,B) Cells were pre-treated with 0.5 and 1 μM of KMU-470 for 30 min prior to LPS treatment. Then, total protein was isolated after 6 h exposure to LPS. The protein expression level of TLR4 and MyD88 were assessed using Western blot analysis. (C,D) The relative optical densities of TLR4 and MyD88 bands were analyzed by the Image-J program. *** p < 0.001.
RAW 264.7 cells were pre-treated with KMU-470 (0.5–1 μM/mL) for 24 h and stimulated with LPS (50 ng/mL) for 6 h. After stimulation, total cells were harvested, washed with PBS buffer, and then the total protein was extracted with a RIPA buffer (0.1 mM sodium orthovanadate, 137 mM NaCl, 15 mM EGTA, 0.1% Triton X-100, 25 mM MOPS, 15 mM MgCl2, 100 μM phenylmethylsulfonyl fluoride, and 20 μM leupeptin, adjusted to pH 7.2). The cell culture media supernatants were precipitated using TCA (trichloroacetic acid, protocol by Luis Sanchez 2001). A BCA protein assay kit (Thermo Scientific, Wilmington, USA) was used for the determination of the protein concentration. […] Immunoreactive proteins were detected using the ELC Western blot detection system kit (Millipore). Signal intensity was measured using the Chemi Image documentation system (Fusion Fx7, VILBER LOUTMAT). Protein expression levels were quantified using the Image J program.

[5] = system: TNF-α; assay: LPS-induced TNF-α mRNA in RAW 264.7 cells (real time PCR); format: cell-based, murine; conditions: KMU-470 30 min, LPS 50 ng/mL 6 h
Description: (§2) Figure 6 Inhibitory effect of KMU-470 on LPS-induced up-regulation of pro-inflammatory cytokines and activation of NLRP3 inflammasome in RAW 264.7 cells. (A–C) Cells were treated with KMU-470 for 30 min and stimulated with LPS 50 ng/mL for 6 h. The levels of IL-1β, TNF-α, and IL-6 were determined using real time PCR. *** p < 0.001, *p < 0.05. (D) Cells were pre-treated with 0.1, 0.5, and 1 μM of KMU-470 for 30 min and treated with LPS 50 ng/mL for 6 h, respectively. Whole cell lysates were isolated and used to measure the protein expression levels of pro-IL-1β and β-actin by Western blot analysis. (E) Cells were pre-treated with 0.1, 0.5, and 1 μM of KMU-470 for 30 min and treated with LPS 50 ng/mL for 6 h, respectively. Whole cell lysates were isolated and used to measure the protein expression levels of […], ASC, pro-caspase-1, pro-IL-1β, and β-actin by Western blot analysis.
Total RNA was isolated using TriZol reagent (Life Technologies; Gaithersburg, MD, USA) according to the manufacturer’s protocol. Total RNA absorbance was quantified by using Nanodrop 1000 (Thermo Fisher Scientific, Waltham, MA, USA). […] Real time quantitative PCR was performed by using the SYBR green premix (Roche Diagnostics, Mannheim, Germany) on the LightCycler 480 PCR (system Roche Diagnostics, Mannheim, Germany). […]

[6] = system: ASC; assay: LPS-induced ASC protein expression in RAW 264.7 cells (Western blot); format: cell-based, murine; conditions: KMU-470 0.1, 0.5, 1 μM 30 min, LPS 50 ng/mL 6 h
Description: as §2
RAW 264.7 cells were pre-treated with KMU-470 (0.5–1 μM/mL) for 24 h and stimulated with LPS (50 ng/mL) for 6 h. […] Immunoreactive proteins were detected using the ELC Western blot detection system kit (Millipore). Signal intensity was measured using the Chemi Image documentation system (Fusion Fx7, VILBER LOUTMAT). Protein expression levels were quantified using the Image J program.

T2 sequence (Q9P1W9 whole entry, species assumed): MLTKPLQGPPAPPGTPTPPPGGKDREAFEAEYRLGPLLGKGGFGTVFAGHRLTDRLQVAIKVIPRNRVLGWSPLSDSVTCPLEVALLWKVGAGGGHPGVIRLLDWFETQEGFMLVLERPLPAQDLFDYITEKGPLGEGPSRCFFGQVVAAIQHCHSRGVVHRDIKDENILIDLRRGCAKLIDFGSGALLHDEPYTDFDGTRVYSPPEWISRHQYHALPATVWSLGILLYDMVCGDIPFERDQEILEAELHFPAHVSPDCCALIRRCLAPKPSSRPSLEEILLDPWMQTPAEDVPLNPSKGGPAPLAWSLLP
T3 sequence (P11309 whole entry, species assumed): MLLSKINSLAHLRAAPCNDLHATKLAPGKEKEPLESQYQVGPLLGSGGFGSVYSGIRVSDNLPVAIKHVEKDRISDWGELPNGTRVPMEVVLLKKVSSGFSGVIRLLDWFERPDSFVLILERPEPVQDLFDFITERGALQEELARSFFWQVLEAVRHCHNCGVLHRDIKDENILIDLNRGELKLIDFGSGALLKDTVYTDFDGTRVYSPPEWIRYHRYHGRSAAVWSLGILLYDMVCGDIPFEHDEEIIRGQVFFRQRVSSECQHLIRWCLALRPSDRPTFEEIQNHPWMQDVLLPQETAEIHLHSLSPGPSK

## CN(C)CCNc1cncc(-c2ccc3c(c2)/C(=C/c2cnc[nH]2)C(=O)N3)n1 [KMU-470, (Z)-3-((1H-Imidazol-5-yl)methylene)-5-(6-((2-(dimethylamino)ethyl)amino)pyrazin-2-yl)indolin-2-one]
[1]
  IC50: 6.9 nM
[2]
  IC50: 220 nM
[3]
  IC50: 5.6 nM
[4]
  Up-regulation of TLR4 protein by LPS: suppressed
[5]
  LPS-induced up-regulation of TNF-α (mRNA): significantly decreased
[6]
  Expression of ASC protein compared with LPS alone group: marked decrease
